The assay deals with T1, Sub1.
T1 construct: signal peptide removed; pET-30a(+) NcoI/XhoI, His6-tagged (tag kept), expressed in E. coli SHuffle T7
The assay can be described thus: spectrophotometric p-nitrophenol release at […] nm, Michaelis-Menten fit. The format is biochemical, Streptomyces scabiei. To be noted: Tris-HCl 20 mM, pH 7.5, room temperature; Triton X-100 (0.5%) apparently present.

The term Km denotes the substrate concentration at which the rate is half of its maximum.

Take `CCCC(=O)Oc1ccc([N+](=O)[O-])cc1` [p-nitrophenyl butyrate]: the Km came to 570 ± 40 µM.

The values above are taken from paper PMC7104285, “Enzymatic Degradation of p-Nitrophenyl Esters, Polyethylene Terephthalate, Cutin, and Suberin by Sub1, a Suberinase Encoded by the Plant Pathogen Streptomyces scabies” (Microbes and Environments, 2020).
